Source: patent US12077503B2, “Substituted cyclic amides and their use as herbicides” (FMC CORPORATION, priority 2015, dated 2024)

Experiments:
Experiment in all cases: Test A preemergence
Assay type in all cases: in vivo
Kochia (Kochia scoparia) = settings: Bassia scoparia, pre-emergence, 240 h, read-out: Plant response rating, Kochia; for pest or weed control at 125 g/ha: 125 g ai/ha, visual rating after approx. 10 d, 0 to 100 scale where 0 is no effect and 100 is complete control; for pest or weed control at 125 g/ha / pest or weed control at 500 g/ha: preemergence; for pest or weed control at 500 g/ha: 500 g ai/ha, 0 to 100 scale, 0 = no effect, 100 = complete control
Method in brief: (§1)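 Preemergence directed soil spray on seeded pots, or postemergence application to plants 2–10 cm, one- to two-leaf. Solvent mixture non-phytotoxic, with surfactant. Scored ~10 d later, visually, 0–100 vs untreated.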

[1] = test system: barnyardgrass (Echinochloa crus-galli); settings: Echinochloa crus-galli, pre-emergence, 240 h, read-out: Plant response rating, Barnyardgrass; for pest or weed control at 125 g/ha: 125 g ai/ha, visual rating after approx. 10 d, 0 to 100 scale where 0 is no effect and 100 is complete control; for pest or weed control at 125 g/ha / pest or weed control at 500 g/ha: preemergence; for pest or weed control at 500 g/ha: 500 g ai/ha, 0 to 100 scale, 0 = no effect, 100 = complete control
Method in brief: as §1

[2] = test system: giant foxtail (Setaria faberii); settings: Setaria faberi, pre-emergence, 240 h, read-out: Plant response rating, Foxtail, Giant; for pest or weed control at 125 g/ha: 125 g ai/ha, visual rating after approx. 10 d, 0 to 100 scale where 0 is no effect and 100 is complete control; for pest or weed control at 125 g/ha / pest or weed control at 500 g/ha: preemergence; for pest or weed control at 500 g/ha: 500 g ai/ha, 0 to 100 scale, 0 = no effect, 100 = complete control
Method in brief: as §1

[3] = test system: pigweed (Amaranthus retroflexus); settings: Amaranthus retroflexus, pre-emergence, 240 h, read-out: Plant response rating, Pigweed; for pest or weed control at 125 g/ha: 125 g ai/ha, visual rating after approx. 10 d, 0 to 100 scale where 0 is no effect and 100 is complete control; for pest or weed control at 125 g/ha / pest or weed control at 500 g/ha: preemergence; for pest or weed control at 500 g/ha: 500 g ai/ha, 0 to 100 scale, 0 = no effect, 100 = complete control
[4] = test system: ragweed (common ragweed, Ambrosia elatior); settings: Ambrosia artemisiifolia, pre-emergence, 240 h, read-out: Plant response rating, Ragweed; for pest or weed control at 125 g/ha: 125 g ai/ha, visual rating after approx. 10 d, 0 to 100 scale where 0 is no effect and 100 is complete control; for pest or weed control at 125 g/ha / pest or weed control at 500 g/ha: preemergence; for pest or weed control at 500 g/ha: 500 g ai/ha, 0 to 100 scale, 0 = no effect, 100 = complete control
Method in brief: as §1

[5] = test system: ryegrass, Italian (Italian ryegrass, Lolium multiflorum); settings: Lolium multiflorum, pre-emergence, 240 h, read-out: Plant response rating, Ryegrass, Italian; for pest or weed control at 125 g/ha: 125 g ai/ha, visual rating after approx. 10 d, 0 to 100 scale where 0 is no effect and 100 is complete control; for pest or weed control at 125 g/ha / pest or weed control at 500 g/ha: preemergence; for pest or weed control at 500 g/ha: 500 g ai/ha, 0 to 100 scale, 0 = no effect, 100 = complete control
Method in brief: as §1

[6] = Preemergence, 31 g ai/ha, 0 to 100 scale (0 no effect, 100 complete control)

Row | Structure (SMILES) | pest or weed control at 125 g/ha (Kochia (Kochia scoparia)) [%] | pest or weed control at 500 g/ha (Kochia (Kochia scoparia)) [%] | pest or weed control at 125 g/ha [1] [%] | pest or weed control at 500 g/ha [1] [%] | pest or weed control at 125 g/ha [2] [%] | pest or weed control at 500 g/ha [2] [%] | pest or weed control at 125 g/ha [3] [%] | pest or weed control at 500 g/ha [3] [%] | pest or weed control at 125 g/ha [4] [%] | pest or weed control at 500 g/ha [4] [%] | pest or weed control at 125 g/ha [5] [%] | pest or weed control at 500 g/ha [5] [%] | pest or weed control at 31 g/ha (Kochia (Kochia scoparia); [6]) [%] | pest or weed control at 31 g/ha [1, 6] [%] | pest or weed control at 31 g/ha [2, 6] [%] | pest or weed control at 31 g/ha [3, 6] [%] | pest or weed control at 31 g/ha [4, 6] [%] | pest or weed control at 31 g/ha [5, 6] [%]
1 | CSc1ccccc1NC(=O)[C@H]1C(=O)N(C)C[C@@H]1c1ccc(C)c(C)c1 [Compound 733] | 20 | 80 | 90 | 100 | 90 | 90 | 20 | 60 | 70 | 80 | 40 | 60 | – | – | – | – | – | –
2 | CSc1ccccc1NC(=O)[C@H]1C(=O)N(C)C[C@@H]1c1cc(F)cc(F)c1 [Compound 738] | 0 | 70 | 90 | 100 | 90 | 100 | 0 | 50 | 0 | 70 | 0 | 20 | – | – | – | – | – | –
3 | CN1C[C@H](c2cc(F)cc(F)c2)[C@@H](C(=O)Nc2ccccc2S(C)(=O)=O)C1=O [Compound 739] | 30 | 80 | 90 | 100 | 90 | 100 | 0 | 30 | 50 | 80 | 0 | 30 | – | – | – | – | – | –
4 | CN1C[C@H](c2ccc3c(c2)CCC3)[C@@H](C(=O)Nc2ccccc2F)C1=O [Compound 742] | 60 | 90 | 90 | 90 | 90 | 90 | 20 | 50 | 20 | 80 | 50 | 90 | – | – | – | – | – | –
5 | CN1C[C@H](c2ccc3c(c2)CCC3)[C@@H](C(=O)Nc2cccc(F)c2F)C1=O [Compound 743] | 60 | 80 | 90 | 90 | 90 | 90 | 0 | 20 | 0 | 40 | 90 | 90 | – | – | – | – | – | –
6 | CN1C[C@H](c2ccc3c(c2)CCC3)[C@@H](C(=O)Nc2ccccc2S(C)(=O)=O)C1=O [Compound 744] | 60 | 90 | 20 | 90 | 90 | 90 | 20 | 50 | 0 | 50 | 0 | 80 | – | – | – | – | – | –
7 | CN1C[C@H](c2ccc(C(F)(F)F)cc2)[C@@H](C(=O)Nc2ccc(F)c(F)c2F)C1=O [Compound 745] | 90 | 90 | 90 | 90 | 90 | 90 | 80 | 90 | 80 | 80 | 70 | 90 | – | – | – | – | – | –
8 | CS(=O)(=O)c1ccccc1NC(=O)[C@H]1C(=O)NC[C@@H]1c1cccc2c1OC(F)(F)O2 [Compound 753] | 20 | 20 | 70 | 100 | 70 | 90 | 0 | 0 | 0 | 0 | 0 | 20 | – | – | – | – | – | –
9 | Cc1ccc([C@H]2CNC(=S)[C@@H]2C(=O)Nc2cccc(F)c2C)cc1C [Compound 764] | 0 | 0 | 100 | 100 | 70 | 80 | 0 | 0 | 0 | 0 | 0 | – | – | – | – | – | – | –
10 | CSc1ccccc1NC(=O)[C@H]1C(=S)NC[C@@H]1c1ccc(C)c(C)c1 [Compound 766] | 0 | 0 | 70 | 90 | 0 | 40 | 0 | 0 | 0 | 0 | 0 | – | – | – | – | – | – | –
11 | COc1cc([C@H]2CN(C)C(=O)[C@@H]2C(=O)Nc2ccccc2F)ccc1C(F)(F)F [Compound 768] | 60 | 70 | 90 | 90 | 90 | 90 | 0 | 20 | 0 | 0 | 0 | – | – | – | – | – | – | –
12 | COc1cc([C@H]2CN(C)C(=O)[C@@H]2C(=O)Nc2cccc(F)c2F)ccc1C(F)(F)F [Compound 770] | 0 | – | 90 | – | 90 | – | 90 | – | 0 | – | 0 | – | 0 | 70 | 90 | 40 | 0 | 0
